Data published in paper PMC11763264, “Antibacterial and Antifungal Activities of Linear and Cyclic Peptides Containing Arginine, Tryptophan, and Diphenylalanine” (Antibiotics, 2025).
Values after ≈ are worked out from the molar mass of the structure shown. Values joined by “and” are separate entries in the source; they are usually repeats but may differ in a detail not shown here. Identical values can stand only once. Non-standard residues stand in square brackets, D forms with d. Residues, ends and D or L forms follow the SMILES beside them. Dip = N[C@H](C(=O)O)C(c1ccccc1)c1ccccc1

Assays:
[1] = system: E. faecium (ATCC 700221); test: microbe, parasite or virus in culture; assay type: cell-based, Enterococcus faecium; details: ATCC 700221, 24 h
Description: (§1) The antibacterial activity of all ten synthesized linear and cyclic peptides was evaluated against MRSA (ATCC BAA-1556), S. aureus (ATCC 29213), E. faecium (ATCC 700221), S. pneumoniae (ATCC 51938), E. faecalis (ATCC 29212), B. subtilis (ATCC-6633), K. pneumoniae (ATCC BAA-1705), P. aeruginosa (ATCC 27883), and E. coli (ATCC 25922). Meropenem and daptomycin were used as positive controls for this study. Certain peptides are marked as “NT” (not tested) against specific bacterial strains based on initial screening data. […] The MIC was determined by micro-broth dilution protocol, where the minimal concentrations were determined to be in wells with no visible bacterial growth.
(§2) All bacterial experiments were carried out in a laminar flow hood (Labconco, Kansas City, MO, USA). The bacterial strains were cultured following the guidelines set by the Clinical Laboratory Standards Institute (CLSI). Antibacterial assays were performed using a standard microtiter dilution method as described in previous studies. The minimum inhibitory concentration (MIC) refers to the lowest peptide concentration that inhibits bacterial growth in wells with no visible bacterial growth. MIC was determined by micro-broth dilution. Bacteria were cultured overnight in 6 mL of Luria Broth (LB). A stock solution of the peptide was prepared in water and DMSO, and a test compound solution with a concentration of 256 µg/mL was made in LB. Meropenem, with a solubility of 8 mg/mL, was prepared as a stock solution at 4 mg/500 µL. An aliquot of the overnight bacteria culture was diluted in normal saline (NS, 1 mL) until achieving a 0.5 McFarland turbidity (1.5 × 10^8 bacterial cell CFU/mL). A 0.5 McFarland compared solution (60 µL) was added to Mueller Hinton Broth (MH) 8940 µL to generate a 1/150 dilution. A 200 µL test compound solution was added to the first well of a 96-well plate, and the remaining wells (2–12) were filled with 100 µL of MH media using a multi-channel pipette from a sterile reservoir. A concentration of […] of the tested peptides was prepared from a stock solution of the samples for testing in Muller−Hinton broth MH media. Peptides stock solution was dissolved in 5% DMSO in water, and the final concentration of DMSO in the first well of assay plate was 2.5% DMSO/H2O and diluted across the assay plate.
(§3) A 100 µL sample from well 1 was pipetted into well 2, and the solution was mixed thoroughly by pipetting up and down. Next, 100 µL was transferred from well 2 to well 3, followed by thorough mixing. This 2-fold serial dilution process continued through well 11, with no additions made to well 12. The final 100 µL from well 11 was discarded. After completing the serial dilution, each well (1–12) contained 100 µL of solution. The bacterial culture in MH media was vortexed and transferred to a sterile reservoir, from which 100 µL was added to each well using a 12-channel pipette. (Note: The dilutions were further diluted upon adding the bacterial solution; for example, the concentration in well 1 started at […] after the addition of the bacterial culture.) The plates were incubated overnight at 37 °C for 24 h. All experiments were performed in triplicate and repeated twice, with controls consisting of bacteria in MH media and positive controls of daptomycin or meropenem.

[2] = system: C. parapsilosis (ATCC 22019); test: microbe, parasite or virus in culture; assay type: cell-based, Candida parapsilosis; details: ATCC 22019, 24 h
Description: (§4) The antifungal activity of all ten synthesized linear and cyclic peptides was evaluated against C. albicans (ATCC 60193), C. parapsilosis (ATCC 22019), and A. fumigatus (AF-293). Fluconazole and amphotericin B were used as positive controls for this study. The MIC was determined at concentrations in wells with no visible fungal growth.
In this study, C. albicans and C. parapsilosis were cultured on Yeast Peptone Dextrose (YPD) agar containing 1% w/v yeast extract, 2% w/v peptone, 2% w/v D-glucose, and 1.5% agar. A single colony from the agar was selected and cultured in Tryptone soy broth supplemented with 0.1% D-glucose, then incubated for 24 h at 37 °C. The cells were washed twice with PBS by centrifugation at 2000 RPM for 5 min. The pellet was resuspended in 5 mL of PBS, diluted in RPMI 1640 with L-glutamine, supplemented with 2% D-glucose, and the pH adjusted using HEPES buffer. The suspension was then incubated for 50 min at 35 °C to achieve a final cell concentration of 10^6 cells/mL.
Peptide concentrations of 50, 25, 12.5, 6.25, and 3.1 μg/mL were tested in triplicate and repeated twice. Each well of a 96-well plate was inoculated with the prepared inoculum suspension, which was diluted with RPMI media to a final volume of 200 μL per well. The control well received the same inoculum without any compound. The plates were incubated for 24 h at 37 °C. Fungal and microbial growth were visually observed in the control wells, and the minimum inhibitory concentration (MIC) was determined as the lowest concentration at which no growth was detected in the wells. Amphotericin B was used as a standard antifungal drug.

[3] = system: B. subtilis (ATCC-6633); test: microbe, parasite or virus in culture; assay type: cell-based, Bacillus subtilis; details: ATCC-6633, 24 h
Description: as §1, §2, §3

[4] = system: C. parapsilosis and A. fumigatus; assay type: cell-based; details: span over the two fungi
Description: as §4
A. fumigatus (Af-293) was cultured on Sabouraud dextrose agar (SDA) (Lot #3431660, Oxoid) for 48–72 h at 35 °C to obtain fresh and mature colonies which reached the proper sporulation then used to prepare the inoculum. The colonies were covered with Phosphate-Buffered Saline (PBS) containing 0.025% Tween-20, scraped from the plate, and carefully collected into a sterile tube. The suspension was centrifuged at 3000 RPM for 5 min after the separation between conidia and hyphae. […]
Peptide concentrations of 50, 25, 12.5, 6.25, and 3.1 μg/mL were tested in triplicate. […] Fungal growth was visualized, and the minimum inhibitory concentration (MIC) was determined as the lowest peptide concentration, where no growth was observed. […]
Peptide concentrations of 50, 25, 12.5, 6.25, and 3.1 μg/mL were tested in triplicate and repeated twice. […] Fungal and microbial growth were visually observed in the control wells, and the minimum inhibitory concentration (MIC) was determined as the lowest concentration at which no growth was detected in the wells. […]

[5] = system: LLC-PK1 cells; details: cited from earlier work
Text: We have previously reported in vitro cytotoxicity of the synthesized peptides in a range of mammalian cell lines, including human ovarian adenocarcinoma cells (SK-OV-3), human peripheral blood lymphoblast cells (CCRF-CEM), healthy human embryonic kidney cells (HEK-293), human mammary adenocarcinoma cells (MDA-MB-468), normal pig kidney epithelial cells (LLC-PK1), and human uterine sarcoma fibroblast cells (MES-SA).

[6] = system: P. aeruginosa (ATCC 27883); test: microbe, parasite or virus in culture; assay type: cell-based, Pseudomonas aeruginosa; details: ATCC 27883, 24 h
Description: as §1, §2, §3

## N=C(N)NCCC[C@@H]1NC(=O)[C@H](C(c2ccccc2)c2ccccc2)NC(=O)[C@H](CCCNC(=N)N)NC(=O)[C@H](C(c2ccccc2)c2ccccc2)NC(=O)[C@H](CCCNC(=N)N)NC(=O)[C@H](C(c2ccccc2)c2ccccc2)NC(=O)[C@H](CCCNC(=N)N)NC(=O)[C@H](C(c2ccccc2)c2ccccc2)NC(=O)[C@H](CCCNC(=N)N)NC(=O)[C@H](C(c2ccccc2)c2ccccc2)NC1=O [[DipR]5] (cyclo([Dip]R[Dip]R[Dip]R[Dip]R[Dip]R))
[1]
  MIC: 0.78 µM (≈ 1.48 µg/mL)
[2]
  MIC: 6.6 µM (≈ 12.5 µg/mL)
[3]
  MIC: 6.3 µM (≈ 12 µg/mL)
[4]
  MIC values against C. parapsilosis and A. fumigatus: 1.6–6.6 µM and 3.0–12.5 µg/mL
[5]
  cytotoxicity against LLC-PK1 cells: reduced cytotoxicity
[6]
  MIC: 25 µM (≈ 47.4 µg/mL)
